Legend:
Assay type in all cases: cell-based
[1] = tested on: MCF7 (p53 wild-type) cells; experiment: Clonogenic survival assay after DNA damage, MCF7 cells expressing Arm1 or control shRNA
Protocol: (§1) MCF7 and SK-Br-3 cells were obtained from ATCC and maintained in DMEM or McCoys 5A supplemented with 10% FBS and antibiotics at 37° C., 5% CO2. A human Flag-tagged Arm1, Rev1, and p21 expression construct (Origene) were transiently transfected into SK-Br-3 cells with Fugene 6 (Roche) and extracts generated after 24 h. Lentiviral shRNA particles were obtained from Open Biosystems and stably expressing clones selected with puromycin and confirmed by GFP expression and Q-PCR (FIG. 10). […] Surviving colonies were stained with methylene blue and counted 2 weeks after treatments.
(§2) The results from this example are shown in FIG. 3. a, Arm1 promotes PCNA methyl esterification following DNA damage. PCNA was analyzed by 2D-PAGE immunoblotting in SK-Br-3 and MCF7 cells expressing Arm1 or non-targeting (control) shRNA in the absence of DNA damage or 4 h following Dox treatment or UV irradiation. b, PCNA-dependent methyltransferase activities are alter in shRNA expressing SK-Br-3 and MCF7 cells. WCE were assayed for PCNA-dependent carboxyl methyltransferase activity in the presence of His-PCNA ([…]) and average activities shown (±S.E.M.). Significance was determined using a two-tailed t-test. c, DNA damage sensitivity in Arm1 knockdown cells is related to p53 status. MCF7 (p53 wild-type) and SK-Br-3 (p53-mutant) cells were exposed to increasing levels of Dox and UV and survival determined by clonogenic survival. Average results from three independent experiments are presented ±SD. d, Arm1 knockdown promotes DNA repair. DNA repair rates were determined in shRNA expressing SK-Br-3 and MCF7 cells using host cell reactivation assay. Cells were transfected with UV-irradiated reporter plasmids and average repair rates were determined after 24 h. Average results from independent experiments are presented (±S.E.M.). Significance was determined with a two-tailed t-test.
In addition to PCNA modification in knock-down cells, we examined cell survival following DNA damage (FIG. 4b). […]

[2] = tested on: SK-Br-3 (p53-mutant) cells; experiment: Clonogenic survival assay after DNA damage, SK-Br-3 cells expressing Arm1 or control shRNA; details: for cells surviving: 0.0025% MMS; for survival: 0.5 mM DOX
Protocol: as §1, §2
In addition to PCNA modification in knock-down cells, we examined cell survival following DNA damage (FIG. 4b). […] In MCF7 cells with knocked-down Arm1 expression 47% of cells survived 0.5 mM DOX compared to 15% survival in the control cells (FIG. 4b). Similar results were consistently observed in response to UV with 39% of the Arm1 knock-down cells surviving 25 J/m^2 compared to 19% in the control. […] Additionally, because ˜50% of tumours harbour p53 mutations and knock-down of Arm1 expression in p53-mutant breast tumours appeared to sensitize the cells to DNA damage, inhibition of Arm1 may ultimately allow us to more effectively target tumour cells.

p21^WAF1/CIP1 = experiment: p21 expression in Dox-treated MCF7 cells (SDS-PAGE, immunoblot); details: MCF7 cells following Dox treatment
Protocol: The results from this example are shown in FIG. 2. a, Doxorubicin (Dox) promotes PCNA methyl esterification in MCF7 cells. Whole cell extracts (WCE) from cultures treated with Dox ([…]) were resolved by 2D-PAGE followed by PCNA immunoblotting (IB). The basic-shifted PCNA isoform (ME-PCNA) is identified with an arrow. b, PCNA-dependent methyltransferase activity is altered following Dox treatment. Dox treated MCF7 WCE were assayed for PCNA-dependent activity in triplicate using the vapour diffusion assay, and average activities are presented ±S.E.M. Significance was determined using a two-tailed t-test. c, Dox induces p21 expression in MCF7 cells. Extracts were separated by SDS-PAGE and immunoblotted for p21^Waf1/Cip1. d, p21 binding promotes PCNA methyl esterification. Untreated MCF7 extracts were incubated with GST, GST-p21 (full-length), and GST-p21(PIP) proteins bound to glutathione Sepharose for 2 h at 4° C. prior to 2D-PAGE and PCNA immunoblotting. e The p21-induced basic shift is a result of PCNA methyl esterification. p21(PIP) peptide was covalently coupled to CH-Sepharose and used to affinity purify PCNA from MCF7 whole cell extracts. Purified fractions were separated by 2D-PAGE and stained with colloidal Coomassie blue. Spots were excised from the gel, digested with trypsin, and analyzed by LC-MS/MS. […]

| SMILES | survival of Arm1 knock-down cells compared to control cells ([1]; MCF7 Arm1 knock-down cells, response to MMS) | cells surviving ([2]; SK-Br-3 Arm1 knock-down cells) [%] | cells surviving ([2]; SK-Br-3 control cells) [%] | increased expression of p21^WAF1/CIP1 (p21^WAF1/CIP1) [fold] | cells survived ([1]; MCF7 cells with knocked-down Arm1 expression, 0.5 mM DOX) [%] | survival ([1]; MCF7 control cells, 0.5 mM DOX) [%] | survival ([2]; SK-Br-3 cells with knock-down of Arm1 expression) [%] | survival ([2]; SK-Br-3 control cells) [%] |
| --- | --- | --- | --- | --- | --- | --- | --- | --- |
| COS(C)(=O)=O [MMS] | enhanced survival | 4 | 12 | – | – | – | – | – |
| COc1cccc2c1C(=O)c1c(O)c3c(c(O)c1C2=O)C[C@@](O)(C(=O)CO)C[C@@H]3O[C@H]1C[C@H](N)[C@H](O)[C@H](C)O1 [DOX, doxorubicin] | – | – | – | > 27 | 47 | 15 | 3 | 18 |
